Among the data in publication PMC7206119, “RIP1 inhibition blocks inflammatory diseases but not tumor growth or metastases” (Cell Death and Differentiation, 2019) are remaining binding values, retold here.

What all share (assay): biochemical
Parameters in all cases: DiscoverX kinase panel, active-site competition binding (KINOMEscan type), percent of control at one concentration
Details in all cases: competition binding, percent of control

The target in one assay is AAK1 (Homo sapiens, UniProt Q2M2I8). An excerpt:
(§1) To investigate the potential therapeutic benefit of inhibiting RIP1, we developed GNE684 or (S)-N-((S)-7-methoxy-1-methyl-2-oxo-2,3,4,5-tetrahydro-1H-pyrido[3,4-b]azepin-3-yl)-5-phenyl-6,7-dihydro-5H-pyrrolo[1,2-b][1,2,4]triazole-2-carboxamide with cross-species potency against RIP1, exquisite kinase selectivity, and favorable pharmacological properties (Fig. 1a–h, S1, Tables S1 and S2, SI file 1). […] (Fig. 1b, S1, and Table S1). […] GNE684 inhibited human RIP1 potently in vitro, and mouse and rat RIP1 with slightly less potency (Fig. 1d). Accordingly, it inhibited TNF-induced necroptosis in human HT-29, mouse L929, or rat H9c2 cells (Fig. 1e). The cellular potency of GNE684 was confirmed in a human whole blood assay using TBZ (TNF, IAP antagonist BV6, and pan-caspase inhibitor zVAD) or LZ (LPS plus zVAD) to trigger necroptosis and the release of IL-1α and IL-1β (Fig. 1f).

In the next assay the target is BLK (Homo sapiens, UniProt P51451).
Description: as §1

A further assay has as its target BRAF (Homo sapiens, UniProt P15056).
Description: as §1

In a further assay the target is CAMK2A (Homo sapiens, UniProt Q9UQM7).
Sequence of CAMK2A (Q9UQM7 whole entry): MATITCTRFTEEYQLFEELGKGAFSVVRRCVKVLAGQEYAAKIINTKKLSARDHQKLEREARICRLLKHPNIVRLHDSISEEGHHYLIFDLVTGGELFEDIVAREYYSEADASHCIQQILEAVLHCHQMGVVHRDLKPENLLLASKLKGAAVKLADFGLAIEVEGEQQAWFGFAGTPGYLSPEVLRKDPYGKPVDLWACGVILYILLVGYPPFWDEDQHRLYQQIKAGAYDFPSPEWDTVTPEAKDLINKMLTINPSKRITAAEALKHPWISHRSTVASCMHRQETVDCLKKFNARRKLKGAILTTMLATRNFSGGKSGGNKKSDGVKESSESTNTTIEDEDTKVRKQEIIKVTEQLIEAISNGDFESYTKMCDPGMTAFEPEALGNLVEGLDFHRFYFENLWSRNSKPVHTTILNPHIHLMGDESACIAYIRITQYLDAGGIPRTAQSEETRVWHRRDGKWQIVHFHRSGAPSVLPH
Description: as §1

In a further assay the target is CAMKK1 (Homo sapiens, UniProt Q8N5S9).
Description: as §1

In another assay the target is CSNK1A1L (Homo sapiens, UniProt Q8N752).
Sequence of CSNK1A1L (Q8N752 whole entry): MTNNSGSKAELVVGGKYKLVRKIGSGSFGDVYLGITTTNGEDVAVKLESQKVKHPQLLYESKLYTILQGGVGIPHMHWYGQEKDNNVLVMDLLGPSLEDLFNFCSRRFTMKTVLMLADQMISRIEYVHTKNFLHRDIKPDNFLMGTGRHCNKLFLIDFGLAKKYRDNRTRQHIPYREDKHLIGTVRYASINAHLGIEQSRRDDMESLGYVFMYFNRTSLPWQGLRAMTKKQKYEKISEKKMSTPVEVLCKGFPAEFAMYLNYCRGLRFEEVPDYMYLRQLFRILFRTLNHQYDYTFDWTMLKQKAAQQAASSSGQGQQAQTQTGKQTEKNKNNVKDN
Description: as §1

A further assay deals with EGFR(L858R) (Homo sapiens, UniProt P00533, L858R).
Description: as §1

The target of another assay is HIPK3 (Homo sapiens, UniProt Q9H422).
Description: as §1

For a further assay, the target named is IRAK3 (Homo sapiens, UniProt Q9Y616).
Description: as §1

Another assay addresses T1, JNK2 (Homo sapiens, UniProt P45984).
T1 construct: gene MAPK9
Description: as §1

A further assay addresses LRRK2 (Homo sapiens, UniProt Q5S007).
Description: as §1

The target of the next assay is T2, MEK2 (Homo sapiens, UniProt P36507).
T2 construct: gene MAP2K2
Description: as §1

The target in another assay is T3, MEK6 (Homo sapiens, UniProt P52564).
T3 construct: gene MAP2K6
Description: as §1

The target of another assay is MUSK (Homo sapiens, UniProt O15146).
Description: as §1

Another assay has as its target T4, OSR1 (Homo sapiens, UniProt O95747).
T4 construct: gene OXSR1
Description: as §1

In the next assay the target is PKN2 (Homo sapiens, UniProt Q16513).
Sequence of PKN2 (Q16513 whole entry): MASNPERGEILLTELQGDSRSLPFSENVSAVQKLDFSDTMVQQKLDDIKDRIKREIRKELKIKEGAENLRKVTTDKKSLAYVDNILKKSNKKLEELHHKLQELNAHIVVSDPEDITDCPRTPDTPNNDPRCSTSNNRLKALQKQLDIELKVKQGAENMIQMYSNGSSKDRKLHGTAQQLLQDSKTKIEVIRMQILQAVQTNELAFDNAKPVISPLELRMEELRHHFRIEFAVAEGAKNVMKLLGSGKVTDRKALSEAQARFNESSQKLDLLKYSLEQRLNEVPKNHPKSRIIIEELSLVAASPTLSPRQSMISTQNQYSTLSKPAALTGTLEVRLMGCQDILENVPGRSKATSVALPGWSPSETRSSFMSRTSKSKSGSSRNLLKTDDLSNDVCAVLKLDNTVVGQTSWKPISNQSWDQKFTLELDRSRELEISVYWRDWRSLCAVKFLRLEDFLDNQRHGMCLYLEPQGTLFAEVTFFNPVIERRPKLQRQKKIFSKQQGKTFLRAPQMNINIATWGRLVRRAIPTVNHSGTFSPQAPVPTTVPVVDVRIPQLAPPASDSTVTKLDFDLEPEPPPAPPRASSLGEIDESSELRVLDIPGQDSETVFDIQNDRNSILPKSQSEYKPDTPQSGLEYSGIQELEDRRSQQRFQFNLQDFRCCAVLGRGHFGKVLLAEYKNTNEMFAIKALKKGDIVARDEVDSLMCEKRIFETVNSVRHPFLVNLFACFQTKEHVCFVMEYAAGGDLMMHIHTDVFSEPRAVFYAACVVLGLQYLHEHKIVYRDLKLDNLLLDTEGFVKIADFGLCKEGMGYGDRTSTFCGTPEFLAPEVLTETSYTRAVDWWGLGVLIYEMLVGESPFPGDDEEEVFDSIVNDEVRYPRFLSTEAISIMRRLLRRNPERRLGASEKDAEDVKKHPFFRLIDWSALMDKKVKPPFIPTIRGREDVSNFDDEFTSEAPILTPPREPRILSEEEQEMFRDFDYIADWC
Description: as §1

For a further assay, the target named is PLK1 (Homo sapiens, UniProt P53350).
Description: as §1

A further assay concerns the target PRKD2 (Homo sapiens, UniProt Q9BZL6).
Description: as §1

A further assay has as its target RIPK4 (Homo sapiens, UniProt P57078).
Description: as §1

The next assay deals with SGK2 (Homo sapiens, UniProt Q9HBY8).
Sequence of SGK2 (Q9HBY8 whole entry): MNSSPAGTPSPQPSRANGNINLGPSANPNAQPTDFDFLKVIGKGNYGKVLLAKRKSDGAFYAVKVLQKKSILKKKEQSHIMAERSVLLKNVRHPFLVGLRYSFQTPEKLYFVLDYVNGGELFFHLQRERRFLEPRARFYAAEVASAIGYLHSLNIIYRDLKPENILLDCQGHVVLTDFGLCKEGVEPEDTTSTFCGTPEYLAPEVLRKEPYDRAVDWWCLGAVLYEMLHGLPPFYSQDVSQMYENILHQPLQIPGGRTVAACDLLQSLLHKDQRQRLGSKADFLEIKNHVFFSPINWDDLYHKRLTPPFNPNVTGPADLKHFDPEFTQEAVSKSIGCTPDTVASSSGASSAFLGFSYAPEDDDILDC
Description: as §1

In a further assay the target is TAOK3 (Homo sapiens, UniProt Q9H2K8).
Sequence of TAOK3 (Q9H2K8 whole entry): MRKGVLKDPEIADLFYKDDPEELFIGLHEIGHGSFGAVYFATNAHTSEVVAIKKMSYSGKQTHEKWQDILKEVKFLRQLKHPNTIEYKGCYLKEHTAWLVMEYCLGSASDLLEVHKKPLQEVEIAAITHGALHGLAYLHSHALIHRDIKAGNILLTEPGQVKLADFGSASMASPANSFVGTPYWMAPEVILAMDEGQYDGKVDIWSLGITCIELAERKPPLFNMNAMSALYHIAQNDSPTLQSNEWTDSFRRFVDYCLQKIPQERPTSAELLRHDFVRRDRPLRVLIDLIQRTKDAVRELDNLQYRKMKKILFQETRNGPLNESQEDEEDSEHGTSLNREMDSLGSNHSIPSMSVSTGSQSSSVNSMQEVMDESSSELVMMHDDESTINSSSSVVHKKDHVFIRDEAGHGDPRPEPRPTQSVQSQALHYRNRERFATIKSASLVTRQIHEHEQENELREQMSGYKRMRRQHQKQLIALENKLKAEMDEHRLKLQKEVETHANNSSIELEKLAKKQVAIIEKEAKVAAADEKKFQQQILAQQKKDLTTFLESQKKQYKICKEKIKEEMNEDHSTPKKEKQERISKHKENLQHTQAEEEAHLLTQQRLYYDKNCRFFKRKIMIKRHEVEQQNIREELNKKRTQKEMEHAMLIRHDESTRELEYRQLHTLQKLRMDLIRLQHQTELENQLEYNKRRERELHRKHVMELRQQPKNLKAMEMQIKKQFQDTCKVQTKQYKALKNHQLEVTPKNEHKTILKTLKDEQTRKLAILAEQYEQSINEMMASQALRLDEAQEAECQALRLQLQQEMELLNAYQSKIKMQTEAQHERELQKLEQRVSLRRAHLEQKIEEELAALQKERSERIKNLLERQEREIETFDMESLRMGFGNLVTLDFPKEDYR
Description: as §1

In another assay the target is T5, YANK3 (Homo sapiens, UniProt Q86UX6).
T5 construct: gene STK32C
T5 sequence (Q86UX6 whole entry): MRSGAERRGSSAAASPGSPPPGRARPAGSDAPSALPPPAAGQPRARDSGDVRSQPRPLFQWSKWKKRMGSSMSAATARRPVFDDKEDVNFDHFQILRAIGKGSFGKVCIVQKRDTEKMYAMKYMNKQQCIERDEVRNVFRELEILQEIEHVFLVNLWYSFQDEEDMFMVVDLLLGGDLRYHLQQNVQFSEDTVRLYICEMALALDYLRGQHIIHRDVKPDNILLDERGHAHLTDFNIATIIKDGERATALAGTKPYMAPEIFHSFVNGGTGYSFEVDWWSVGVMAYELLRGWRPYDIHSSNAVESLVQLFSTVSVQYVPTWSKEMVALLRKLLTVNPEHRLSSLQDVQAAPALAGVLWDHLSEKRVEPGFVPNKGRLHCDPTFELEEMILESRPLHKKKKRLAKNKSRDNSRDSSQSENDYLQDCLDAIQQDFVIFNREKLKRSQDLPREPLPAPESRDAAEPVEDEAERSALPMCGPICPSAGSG
Description: as §1

Sequence of AAK1 (Q2M2I8 whole entry): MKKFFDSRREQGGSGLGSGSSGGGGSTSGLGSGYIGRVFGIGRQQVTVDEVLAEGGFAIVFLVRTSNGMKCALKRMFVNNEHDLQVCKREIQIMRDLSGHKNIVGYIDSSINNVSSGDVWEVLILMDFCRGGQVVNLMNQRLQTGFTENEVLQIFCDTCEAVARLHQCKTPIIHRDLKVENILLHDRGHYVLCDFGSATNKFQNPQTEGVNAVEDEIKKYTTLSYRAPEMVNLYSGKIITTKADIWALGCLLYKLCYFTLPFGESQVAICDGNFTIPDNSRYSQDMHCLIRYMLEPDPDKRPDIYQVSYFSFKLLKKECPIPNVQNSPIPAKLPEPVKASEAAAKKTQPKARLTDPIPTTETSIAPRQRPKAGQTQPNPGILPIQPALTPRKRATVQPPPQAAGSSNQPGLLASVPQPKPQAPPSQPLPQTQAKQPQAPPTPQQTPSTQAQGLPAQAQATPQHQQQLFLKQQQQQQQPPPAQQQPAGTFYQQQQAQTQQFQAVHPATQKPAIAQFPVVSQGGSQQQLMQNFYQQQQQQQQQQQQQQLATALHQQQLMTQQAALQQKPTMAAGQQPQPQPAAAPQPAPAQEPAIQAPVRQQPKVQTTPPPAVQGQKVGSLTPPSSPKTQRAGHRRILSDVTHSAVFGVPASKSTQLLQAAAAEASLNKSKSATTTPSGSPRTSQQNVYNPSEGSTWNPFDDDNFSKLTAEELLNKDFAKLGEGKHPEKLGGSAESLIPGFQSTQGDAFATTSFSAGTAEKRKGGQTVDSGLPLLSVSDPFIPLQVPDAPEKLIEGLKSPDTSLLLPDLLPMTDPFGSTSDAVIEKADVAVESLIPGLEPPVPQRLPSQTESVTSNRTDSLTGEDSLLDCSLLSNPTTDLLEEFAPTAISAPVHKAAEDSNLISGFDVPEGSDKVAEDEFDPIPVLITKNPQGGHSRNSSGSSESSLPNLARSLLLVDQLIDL
T4 sequence (O95747 whole entry): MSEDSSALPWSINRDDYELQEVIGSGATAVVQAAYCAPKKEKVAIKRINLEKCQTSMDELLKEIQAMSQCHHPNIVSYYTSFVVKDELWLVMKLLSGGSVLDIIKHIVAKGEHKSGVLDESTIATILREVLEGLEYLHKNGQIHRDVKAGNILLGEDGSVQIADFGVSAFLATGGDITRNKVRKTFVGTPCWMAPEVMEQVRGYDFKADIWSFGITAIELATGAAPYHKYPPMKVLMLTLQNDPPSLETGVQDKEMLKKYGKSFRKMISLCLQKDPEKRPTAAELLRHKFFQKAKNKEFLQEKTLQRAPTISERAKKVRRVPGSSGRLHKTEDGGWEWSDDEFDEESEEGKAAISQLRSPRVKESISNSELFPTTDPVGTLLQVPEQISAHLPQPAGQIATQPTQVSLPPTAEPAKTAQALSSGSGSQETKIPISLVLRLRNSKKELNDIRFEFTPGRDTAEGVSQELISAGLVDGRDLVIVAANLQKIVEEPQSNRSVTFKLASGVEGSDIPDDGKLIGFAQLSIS

Consider `COc1cc2c(cn1)N(C)C(=O)[C@@H](NC(=O)c1nc3n(n1)[C@H](c1ccccc1)CC3)CC2` [GNE684, (S)-N-((S)-7-methoxy-1-methyl-2-oxo-2,3,4,5-tetrahydro-1H-pyrido[3,4-b]azepin-3-yl)-5-phenyl-6,7-dihydro-5H-pyrrolo[1,2-b][1,2,4]triazole-2-carboxamide], for which the remaining binding at 10 µM on AAK1 came out at 100%; at BLK, 49%; on BRAF, 98%; at CAMK2A, 69%; on CAMKK1, 99%; on CSNK1A1L it was 100%. The remaining binding at 10 µM at EGFR(L858R) is 100%; on HIPK3, 100%; at IRAK3 it was 100%; at JNK2 it was 98%; at LRRK2 it was 91%; at MEK2 it was 80%. Also, the remaining binding at 10 µM at MEK6 was determined as 100%; on MUSK it was 98%; on OSR1, 93%; on PKN2 it was 84%; on PLK1, 79%; at PRKD2, 100%. The remaining binding at 10 µM at RIPK4 is 100%; at SGK2, 99%; on TAOK3, 60%; on YANK3 it was 93%.
